Assay results published in patent US9072919B2, “Synergistic antioxidant cosmetic compositions containing at least one of baicalin and taxifolin, at least one of caffeine and nicotinamide, at least one of vitamin C and resveratrol and ferulic acid” (priority 2012, dated 2015).

Assays:
[1] = Solubility in water; type: physicochemical
[2] = Oxygen radical absorbance capacity assay (ORAC); type: biochemical; settings: tested both individually and in solution
Protocol: Azo-initiators are considered to produce the peroxyl radical by heating, which damages the fluorescent molecule, resulting in the loss of fluorescence. Antioxidants are considered to protect the fluorescent molecule from the oxidative degeneration. By quantifying the decay of fluorescence using a fluorometer, the degree of protection is determined comparing with a standard control antioxidant Trolox. […] Equipment that can automatically measure and calculate the capacity is commercially available, such as the VarioSkan flash microplate reader from Thermo Scientific. To test samples by using ORAC, compounds are dissolved into water-based NaH2PO4 buffer.

SMILES | solubility in water [1] | influence of hydrotrope on the capacity of antioxidant compounds [2]
O=C(O)[C@H]1O[C@@H](Oc2cc3oc(-c4ccccc4)cc(=O)c3c(O)c2O)[C@H](O)[C@@H](O)[C@@H]1O [baicalin] | very low | 
Cn1c(=O)c2c(ncn2C)n(C)c1=O [caffeine] |  | no influence
NC(=O)c1cccnc1 [nicotinamide] |  | no influence
